Calls of active or inactive are those of the source. No cut-off for these calls is given here.
Experiments:
Staphylococcus aureus [1] = experiment: Antibacterial activity against Staphylococcus aureus CCM 4516/08 after 24 to 48 hrs by broth microdilution method; type: functional, organism-based
Escherichia coli = experiment: Antibacterial activity against Escherichia coli CCM 4517 after 24 to 48 hrs by broth microdilution method; type: functional, organism-based
Pseudomonas aeruginosa = experiment: Antibacterial activity against Pseudomonas aeruginosa CCM 1961 after 24 to 48 hrs by broth microdilution method; type: functional, organism-based
Staphylococcus aureus [2] = experiment: Antibacterial activity against methicillin-resistant Staphylococcus aureus H 5996/08 clinical isolate after 24 to 48 hrs by broth microdilution method; type: functional, organism-based
[3] = tested on: Staphylococcus epidermidis; experiment: Antibacterial activity against Staphylococcus epidermidis H 6966/08 clinical isolate after 24 to 48 hrs by broth microdilution method; type: functional, organism-based
Enterococcus sp. = experiment: Antibacterial activity against Enterococcus sp. J 14365/08 clinical isolate after 24 to 48 hrs by broth microdilution method; type: functional, organism-based
Klebsiella pneumoniae [4] = experiment: Antibacterial activity against Klebsiella pneumoniae D 11750/08 clinical isolate after 24 to 48 hrs by broth microdilution method; type: functional, organism-based
Klebsiella pneumoniae [5] = experiment: Antibacterial activity against ESBL-positive Klebsiella pneumoniae J 14368/08 clinical isolate after 24 to 48 hrs by broth microdilution method; type: functional, organism-based
Candida albicans = experiment: Antifungal activity against Candida albicans ATCC 44859 after 24 to 48 hrs by two-fold dilution method; type: functional, organism-based
Candida tropicalis = experiment: Antifungal activity against Candida tropicalis 156 after 24 to 48 hrs by two-fold dilution method; type: functional, organism-based
Pichia kudriavzevii = experiment: Antifungal activity against Candida krusei E28 after 24 to 48 hrs by two-fold dilution method; type: functional, organism-based
Nakaseomyces glabratus = experiment: Antifungal activity against Candida glabrata 20/I after 24 to 48 hrs by two-fold dilution method; type: functional, organism-based
Trichosporon asahii = experiment: Antifungal activity against Trichosporon asahii 1188 after 24 to 48 hrs by two-fold dilution method; type: functional, organism-based
Aspergillus fumigatus = experiment: Antifungal activity against Aspergillus fumigatus 231 after 24 to 48 hrs by two-fold dilution method; type: functional, organism-based
Lichtheimia corymbifera = experiment: Antifungal activity against Absidia corymbifera 272 after 24 to 48 hrs by two-fold dilution method; type: functional, organism-based
[6] = tested on: Trichophyton mentagrophytes; experiment: Antifungal activity against Trichophyton mentagrophytes 445 after 72 to 120 hrs by two-fold dilution method; type: functional, organism-based
[7] = tested on: Mycobacterium tuberculosis; experiment: Antimycobacterial activity against Mycobacterium tuberculosis H37Rv CNCTC My 331/88 in Middlebrook 7H9 broth after 5 days by AlamarBlue assay; type: functional; details: H37Rv CNCTC My 331/88, 120 h
Mycobacterium kansasii = experiment: Antimycobacterial activity against Mycobacterium kansasii CNCTC My 235/80 in Middlebrook 7H9 broth after 5 days by AlamarBlue assay; type: functional; details: CNCTC My 235/80, 120 h
[8] = Antimycobacterial activity against Mycobacterium avium subsp. avium Chester CNCTC My 80/72 in Middlebrook 7H9 broth after 5 days by AlamarBlue assay; type: functional; details: Chester CNCTC My 80/72, 120 h

Structure (SMILES)	Activity (Staphylococcus aureus [1])	Activity (Escherichia coli)	Activity (Pseudomonas aeruginosa)	Activity (Staphylococcus aureus [2])	Activity [3]	Activity (Enterococcus sp.)	Activity (Klebsiella pneumoniae [4])	Activity (Klebsiella pneumoniae [5])	Activity (Candida albicans)	Activity (Candida tropicalis)	Activity (Pichia kudriavzevii)	Activity (Nakaseomyces glabratus)	Activity (Trichosporon asahii)	Activity (Aspergillus fumigatus)	Activity (Lichtheimia corymbifera)	Activity [6]	MIC [7]	MIC (Mycobacterium kansasii) [µg/mL]	MIC [8] [µg/mL]
O=C(Nc1ccccc1Cl)c1cnc(NCCCCCO)cn1	inactive	inactive	inactive	inactive	inactive	inactive	inactive	inactive	inactive	inactive	inactive	inactive	inactive	inactive	inactive	inactive	> 100 µg/mL	> 100	> 100
O=C(Nc1ccccc1)c1cnc(NCCCCO)cn1	inactive	inactive	inactive	inactive	inactive	inactive	inactive	inactive	inactive	inactive	inactive	inactive	inactive	inactive	inactive	inactive	87.3 µM	> 100	> 100
O=C(Nc1ccccc1)c1cnc(NCCCc2ccccc2)cn1	inactive	inactive	inactive	inactive	inactive	inactive	inactive	inactive	inactive	inactive	inactive	inactive	inactive	inactive	inactive	inactive	75.2 µM	> 100	> 100
O=C(Nc1ccccc1Cl)c1cnc(NCCO)cn1	inactive	inactive	inactive	inactive	inactive	inactive	inactive	inactive	inactive	inactive	inactive	inactive	inactive	inactive	inactive	inactive	> 100 µg/mL	> 100	> 100
COCCCNc1cnc(C(=O)Nc2ccccc2Cl)cn1	inactive	inactive	inactive	inactive	inactive	inactive	inactive	inactive	inactive	inactive	inactive	inactive	inactive	inactive	inactive	inactive	> 100 µg/mL	> 100	> 100
O=C(Nc1ccccc1)c1cnc(NCCCCCO)cn1	inactive	inactive	inactive	inactive	inactive	inactive	inactive	inactive	inactive	inactive	inactive	inactive	inactive	inactive	inactive	inactive	41.6 µM	> 100	> 100
COCCCNc1cnc(C(=O)Nc2ccccc2)cn1	inactive	inactive	inactive	inactive	inactive	inactive	inactive	inactive	inactive	inactive	inactive	inactive	inactive	inactive	inactive	inactive	87.3 µM	> 100	> 100
O=C(Nc1ccccc1)c1cnc(NCCc2ccccc2)cn1	inactive	inactive	inactive	inactive	inactive	inactive	inactive	inactive	inactive	inactive	inactive	inactive	inactive	inactive	inactive	inactive	39.3 µM	> 100	> 100
O=C(Nc1ccccc1Cl)c1cnc(NCCCO)cn1	inactive	inactive	inactive	inactive	inactive	inactive	inactive	inactive	inactive	inactive	inactive	inactive	inactive	inactive	inactive	inactive	> 100 µg/mL	> 100	> 100
Nc1cnc(C(=O)Nc2ccccc2Cl)cn1	inactive	inactive	inactive	inactive	inactive	inactive	inactive	inactive	inactive	inactive	inactive	inactive	inactive	inactive	inactive	inactive	> 100 µg/mL	> 100	> 100
Nc1cnc(C(=O)Nc2ccccc2)cn1	inactive	inactive	inactive	inactive	inactive	inactive	inactive	inactive	inactive	inactive	inactive	inactive	inactive	inactive	inactive	inactive	> 100 µg/mL	> 100	> 100
O=C(Nc1ccccc1Cl)c1cnc(NCCCc2ccccc2)cn1	inactive	inactive	inactive	inactive	inactive	inactive	inactive	inactive	inactive	inactive	inactive	inactive	inactive	inactive	inactive	inactive	> 100 µg/mL	> 100	> 100
COCCNc1cnc(C(=O)Nc2ccccc2Cl)cn1	inactive	inactive	inactive	inactive	inactive	inactive	inactive	inactive	inactive	inactive	inactive	inactive	inactive	inactive	inactive	inactive	> 100 µg/mL	> 100	> 100

Reference: ChEMBL document CHEMBL3352247, “Synthesis and antimycobacterial evaluation of 5-alkylamino-N-phenylpyrazine-2-carboxamides” (Bioorg Med Chem, 2015)
